Calls of active or inactive are those of the source.
Columns and labels:
[1] = molecular target: T1, Corticotropin-releasing factor receptor 2/Corticotropin-releasing factor-binding protein (Homo sapiens, UniProt P24387+Q13324); test: activators of CRF receptor 2 with binding protein – uHTS hits, confirmation (AID 602473); assay type: functional; conditions: read-out: EC50_Mean
T1 sequence (Q13324 whole entry): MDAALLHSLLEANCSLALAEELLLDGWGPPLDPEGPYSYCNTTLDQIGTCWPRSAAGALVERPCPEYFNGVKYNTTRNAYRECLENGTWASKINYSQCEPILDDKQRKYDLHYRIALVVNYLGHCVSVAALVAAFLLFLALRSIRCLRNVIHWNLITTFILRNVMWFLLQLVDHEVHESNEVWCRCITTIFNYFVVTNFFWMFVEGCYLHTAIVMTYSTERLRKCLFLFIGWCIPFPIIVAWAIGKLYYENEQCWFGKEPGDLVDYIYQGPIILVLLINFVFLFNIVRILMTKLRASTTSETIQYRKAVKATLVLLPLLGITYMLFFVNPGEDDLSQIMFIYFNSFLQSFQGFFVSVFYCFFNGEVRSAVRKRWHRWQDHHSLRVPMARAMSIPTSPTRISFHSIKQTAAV
T1 sequence (P24387 whole entry): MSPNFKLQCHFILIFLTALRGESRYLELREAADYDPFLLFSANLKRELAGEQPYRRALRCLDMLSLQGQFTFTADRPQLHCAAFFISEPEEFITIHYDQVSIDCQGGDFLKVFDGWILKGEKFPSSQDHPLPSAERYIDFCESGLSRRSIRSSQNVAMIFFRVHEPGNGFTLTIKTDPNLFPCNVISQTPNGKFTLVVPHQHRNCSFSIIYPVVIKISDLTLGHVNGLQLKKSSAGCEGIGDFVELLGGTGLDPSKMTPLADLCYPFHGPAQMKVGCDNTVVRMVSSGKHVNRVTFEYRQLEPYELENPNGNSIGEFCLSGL

[2] = molecular target: T1, Corticotropin-releasing factor receptor 2/Corticotropin-releasing factor-binding protein; test: Dose Response confirmation of uHTS hits for small molecule antagonists of the CRF-binding protein and CRF-R2 receptor complex.; assay type: functional; conditions: read-out: IC50_Mean
[3] = inhibitors of firefly luciferase expression or activity, dose response, H4 neuroglioma cells, luminescence (AID 1990); assay type: functional, cell-based
[4] = inhibitors of SNCA 5'UTR-driven reporter translation, confirmation, H4 neuroglioma cells, luminescence (AID 1988); assay type: functional, cell-based
[5] = Luminescence Cell-Based Dose Response HTS to Identify Inhibitors of 5'UTR Stem-Loop Driven Prion Protein mRNA Translation in H4 Neuroglioblastoma Cells. [Related pubchem assays: 1827 (Project Summary), 1813 (Primary HTS)]; assay type: functional
[6] = molecular target: T2, Ubiquitin-conjugating enzyme E2 N (Homo sapiens, UniProt P61088); assay type: functional;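 also: Dose-response confirmation in a TR-FRET assay detecting UBC13-driven polyubiquitin chain formation, inhibition measured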
T2 sequence (P61088 whole entry): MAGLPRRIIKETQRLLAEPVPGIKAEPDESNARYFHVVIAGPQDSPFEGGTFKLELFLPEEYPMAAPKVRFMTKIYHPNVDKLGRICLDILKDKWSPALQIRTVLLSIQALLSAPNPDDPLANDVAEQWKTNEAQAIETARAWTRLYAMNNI

[7] = Luminescence Cell-Based Dose Retest to Confirm Inhibitors of Cancer Stem Cells. [Related pubchem assays (depositor defined):AID2717, AID2721]; assay type: functional; conditions: Homo sapiens
[8] = molecular target: Cytochrome P450 3A4 (Homo sapiens, UniProt P08684);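 also: CYP3A4 tested as one member of a cytochrome P450 panel screen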
Chain of Cytochrome P450 3A4 (P08684 whole entry): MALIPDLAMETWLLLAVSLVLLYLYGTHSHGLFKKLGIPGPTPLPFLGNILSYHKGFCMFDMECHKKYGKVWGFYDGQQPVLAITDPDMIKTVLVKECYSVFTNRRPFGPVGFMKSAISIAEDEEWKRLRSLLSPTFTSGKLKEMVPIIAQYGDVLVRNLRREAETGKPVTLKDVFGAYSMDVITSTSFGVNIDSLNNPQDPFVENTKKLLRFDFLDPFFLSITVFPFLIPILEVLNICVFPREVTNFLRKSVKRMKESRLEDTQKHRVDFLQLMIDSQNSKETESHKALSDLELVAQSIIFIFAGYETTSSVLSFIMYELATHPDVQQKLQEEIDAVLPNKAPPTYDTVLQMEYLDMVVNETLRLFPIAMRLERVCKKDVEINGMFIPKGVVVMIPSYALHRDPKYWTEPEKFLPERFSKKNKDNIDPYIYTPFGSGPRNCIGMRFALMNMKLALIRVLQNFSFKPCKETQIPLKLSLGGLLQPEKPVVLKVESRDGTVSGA

[9] = molecular target: T3, Cytochrome P450 1A2 (Homo sapiens, UniProt P05177);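 also: PubChem cytochrome P450 panel assay, CYP1A2 panel member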
T3 sequence (P05177 whole entry): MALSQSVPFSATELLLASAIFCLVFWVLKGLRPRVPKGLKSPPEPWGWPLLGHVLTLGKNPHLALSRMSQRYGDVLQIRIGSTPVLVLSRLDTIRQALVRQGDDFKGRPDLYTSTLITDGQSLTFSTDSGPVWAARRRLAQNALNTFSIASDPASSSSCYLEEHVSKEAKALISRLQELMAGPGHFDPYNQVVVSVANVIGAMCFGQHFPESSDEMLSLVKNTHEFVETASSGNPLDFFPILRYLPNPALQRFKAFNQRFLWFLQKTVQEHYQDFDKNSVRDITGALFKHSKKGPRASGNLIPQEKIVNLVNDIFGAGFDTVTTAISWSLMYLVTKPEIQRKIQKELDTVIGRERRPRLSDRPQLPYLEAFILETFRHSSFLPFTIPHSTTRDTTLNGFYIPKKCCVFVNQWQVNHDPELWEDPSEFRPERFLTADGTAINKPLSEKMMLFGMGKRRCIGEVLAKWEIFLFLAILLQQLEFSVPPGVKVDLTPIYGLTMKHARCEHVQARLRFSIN

[10] = molecular target: Cytochrome P450 2D6 (Homo sapiens, UniProt P10635);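 also: CYP2D6 member of a cytochrome P450 panel assay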
Chain of Cytochrome P450 2D6 (P10635 whole entry): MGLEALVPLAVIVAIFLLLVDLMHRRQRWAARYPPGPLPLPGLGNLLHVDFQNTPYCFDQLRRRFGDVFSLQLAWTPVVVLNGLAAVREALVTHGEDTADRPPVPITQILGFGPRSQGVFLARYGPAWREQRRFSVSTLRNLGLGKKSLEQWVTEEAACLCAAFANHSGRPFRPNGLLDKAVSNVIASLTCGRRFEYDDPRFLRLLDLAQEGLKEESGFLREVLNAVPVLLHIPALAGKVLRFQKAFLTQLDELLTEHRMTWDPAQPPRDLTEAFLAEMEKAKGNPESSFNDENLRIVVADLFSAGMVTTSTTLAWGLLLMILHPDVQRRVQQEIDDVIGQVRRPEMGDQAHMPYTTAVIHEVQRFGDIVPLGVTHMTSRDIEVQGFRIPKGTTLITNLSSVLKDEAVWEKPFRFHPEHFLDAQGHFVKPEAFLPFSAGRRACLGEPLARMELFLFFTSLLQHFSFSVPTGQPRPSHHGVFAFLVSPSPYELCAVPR

[11] = tested on: Streptococcus sp. 'group A'; test: growth inhibition of control SK(-) GAS strain, dose response, counter-screen for streptokinase expression inhibitor project, luminescence, kanamycin, BacTiterGlo, confirmation (AID 1900); assay type: functional, organism-based
[12] = tested on: Streptococcus; test: Group A Streptococcus viability loss, dose response, counter-screen for streptokinase expression inhibitor project, luminescence, BacTiterGlo (AID 1915); assay type: functional, organism-based;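 also: potency for reduction of bacterial viability or growth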
[13] = molecular target: T4, Streptokinase A (Streptococcus pyogenes serotype M1, UniProt P10520); test: S. pyogenes streptokinase expression inhibitors, potency, dose response, plasminogen activation absorbance, OD405 (AID 1914); assay type: functional, Streptococcus pyogenes M1 GAS;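 also: secreted streptokinase activity via plasminogen activation per viability signal from cell pellet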
T4 sequence (P10520 whole entry): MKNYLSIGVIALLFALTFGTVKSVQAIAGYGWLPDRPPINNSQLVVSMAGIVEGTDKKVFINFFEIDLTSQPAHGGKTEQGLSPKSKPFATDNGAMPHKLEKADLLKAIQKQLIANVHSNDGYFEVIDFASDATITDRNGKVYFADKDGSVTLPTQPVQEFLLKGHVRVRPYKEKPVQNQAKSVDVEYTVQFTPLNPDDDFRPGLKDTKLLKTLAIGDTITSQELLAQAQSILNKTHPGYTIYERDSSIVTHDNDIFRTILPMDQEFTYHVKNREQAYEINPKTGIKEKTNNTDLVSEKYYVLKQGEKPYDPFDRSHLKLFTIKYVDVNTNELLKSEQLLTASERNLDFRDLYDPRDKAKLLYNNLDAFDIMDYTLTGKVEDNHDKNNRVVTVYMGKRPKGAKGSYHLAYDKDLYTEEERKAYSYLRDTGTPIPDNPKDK

[14] = inhibitors of intracellular T. cruzi replication, confirmation, NIH3T3 host cells, beta-gal luminescence (AID 2044); assay type: functional, cell-based;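 also: intracellular parasites grown in NIH/3T3 mouse fibroblasts as host cells; luminescent beta-galactosidase reporter signal from transgenic T. cruzi replicating inside host cells; inhibitors lower the luminescence signal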
[15] = cytotoxicity toward NIH3T3 fibroblasts, dose response, counter-screen, cell-based, ATP luminescence, mouse fibroblasts (AID 2010); assay type: functional;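 also: cells exposed to compound for about 90 hours before reading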
[16] = NIH-3T3 fibroblast cytotoxicity, dose response, cytotoxicity control, cell-based, fluorescence, Alamar Blue, secondary assay (AID 2327); assay type: functional;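 also: NIH-3T3 mouse fibroblasts cultured with fluconazole at 8 µg/mL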
[17] = molecular target: Cytochrome P450 2C9 (Homo sapiens, UniProt P11712)
Chain of Cytochrome P450 2C9 (P11712 whole entry): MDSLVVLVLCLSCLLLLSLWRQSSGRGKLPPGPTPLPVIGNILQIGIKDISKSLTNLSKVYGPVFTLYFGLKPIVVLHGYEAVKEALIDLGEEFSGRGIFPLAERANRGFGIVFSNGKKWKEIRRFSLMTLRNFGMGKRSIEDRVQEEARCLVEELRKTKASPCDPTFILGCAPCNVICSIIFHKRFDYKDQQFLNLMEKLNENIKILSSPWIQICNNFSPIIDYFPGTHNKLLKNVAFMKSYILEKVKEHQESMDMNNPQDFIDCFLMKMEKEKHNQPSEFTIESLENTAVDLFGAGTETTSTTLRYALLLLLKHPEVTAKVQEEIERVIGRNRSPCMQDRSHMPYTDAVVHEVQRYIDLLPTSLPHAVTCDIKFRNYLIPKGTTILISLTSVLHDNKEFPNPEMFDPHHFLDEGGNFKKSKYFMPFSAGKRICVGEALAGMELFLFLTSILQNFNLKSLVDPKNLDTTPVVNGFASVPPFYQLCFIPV

SMILES: O=C(CCn1nnc2ccccc21)N1CCN(c2ccccc2)CC1
- EC50 [1]: > 53 µM (inactive)
- IC50 [2]: > 47.1 µM (inactive)

SMILES: CCNc1nc(Oc2ccc(C#N)cc2)cc(C(F)(F)F)n1
- EC50 [3]: 5.99 µM (active)
- EC50 [4]: 11.7 µM (active)
- EC50 [5]: 16.8 µM (active)

SMILES: Cc1nc(N)sc1C(=O)NN
- IC50 [6]: > 20 µM (inactive)

SMILES: CCCn1c(=O)c(C(=O)NNS(=O)(=O)c2ccc(Cl)cc2)c(O)c2ccccc21
- AC50 [7]: 1.57 µM (active)

SMILES: COc1ccc(/C=N/OCC(=O)N2CC3(C)CC2CC(C)(C)C3)cc1 (stereo not given)
- AC50 [7]: 11.5 µM (active)

SMILES: CCOC(=O)C1=C(C)NC(=O)N[C@@H]1c1coc2cc(C)cc(C)c2c1=O
- AC50 [8]: 3.98 µM (inconclusive)
- AC50 [9]: 2.51 µM (inconclusive)

SMILES: O=C(Nc1ccc(Cl)c(S(=O)(=O)N2CCOCC2)c1)c1ccccc1-c1ccc(C(F)(F)F)cc1
- EC50 [3]: 14.5 µM (active)
- EC50 [4]: > 120 µM (not active)
- EC50 [5]: > 120 µM (not active)

SMILES: O=[N+]([O-])c1ccc(Cl)c(/C=N/n2c(S)nnc2C2CCCCC2)c1
- AC50 [7]: 36.1 µM (active)

SMILES: CCCn1c(SCC#N)nc2c(c1=O)C1(CCCC1)Cc1ccccc1-2
- AC50 [7]: 1.92 µM (active)

SMILES: O=C(CSc1nc[nH]n1)Nc1cc(S(=O)(=O)N2CCCC2)ccc1Cl
- EC50 [1]: > 53 µM (inactive)
- IC50 [2]: > 47.1 µM (inactive)

SMILES: Cc1ccc(N2CCN(C(=O)CN3C(=O)c4ccccc4C3=O)CC2)cc1
- EC50 [1]: > 53 µM (inactive)
- IC50 [2]: > 47.1 µM (inactive)

SMILES: CN(C)c1ccc(/C=C(\Cl)c2nc3ccccc3s2)cc1
- AC50 [7]: 1.58 µM (active)

SMILES: COc1ccc(Cc2nnc(Nc3ccc(C)cc3)o2)cc1OC
- EC50 [3]: > 120 µM (not active)
- EC50 [4]: 11.5 µM (active)
- EC50 [5]: > 120 µM (not active)

SMILES: CS(=O)(=O)N1CCC2(CC1)CN(Cc1ccncc1)C2
- AC50 [10]: 20 µM (inconclusive)
- AC50 [8]: 31.6 µM (inconclusive)

SMILES: N#CCC(=O)N/N=C/c1cn(Cc2cccc3ccccc23)c2ccccc12
- EC50 [3]: 14.9 µM (active)
- EC50 [4]: 8.59 µM (active)
- EC50 [5]: > 120 µM (not active)

SMILES: c1cncc(-c2cc(-c3cc(-c4cccnc4)[nH]n3)n[nH]2)c1
- AC50 [8]: 5.01 µM (inconclusive)
- AC50 [9]: 0.501 µM (inconclusive)

SMILES: Fc1ccc(CSc2ncnc3sc4c(c23)CCCC4)cc1
- EC50 [11]: 22.8 µM (active)
- EC50 [12]: > 150 µM (not active)
- EC50 [13]: 13.3 µM (active)
- AC50 [8]: 35.5 µM (inconclusive)

SMILES: Cc1ccccc1-n1c(CSC(=N)N)nc2ccccc2c1=O
- EC50 [1]: > 53 µM (inactive)
- IC50 [2]: > 47.1 µM (inactive)

SMILES: CCCCc1ccc(/C=C(\C#N)C(N)=S)s1
- IC50 [6]: > 20 µM (inactive)

SMILES: Cc1cccc(C(=O)Nc2ccc(C(=O)Nc3ccc(O)cc3)cc2)c1
- AC50 [7]: 2.09 µM (active)

SMILES: c1cc(CNCCN2CCNCC2)ccn1
- AC50 [10]: 3.98 µM (inconclusive)
- AC50 [8]: 5.01 µM (inconclusive)

SMILES: COc1cccc(CN(C)C(=O)c2cccc(S(=O)(=O)N3CCN(c4ccccc4)CC3)c2)c1OC
- EC50 [1]: > 53 µM (inactive)
- IC50 [2]: > 47.1 µM (inactive)

SMILES: CC(C)(C)n1nc(-c2ccc(F)cc2)c2c(N)ncnc21
- EC50 [3]: 8.68 µM (active)
- EC50 [4]: 20 µM (active)
- EC50 [14]: 0.316 µM (active)
- EC50 [15]: 7.86 µM (active)

SMILES: CCn1c(SCC(=O)NC2CC2)nnc1-c1ccncc1
- EC50 [1]: > 53 µM (inactive)
- IC50 [2]: > 47.1 µM (inactive)

SMILES: CCOC(=O)C1CCCN(C(=O)CCNC(=O)Cn2ccc3ccccc3c2=O)C1 (stereo not given)
- EC50 [3]: > 120 µM (not active)
- EC50 [4]: > 120 µM (not active)
- EC50 [5]: 104 µM (active)

SMILES: COc1cccc(NC(=S)C(C#N)=C2N(C)c3ccccc3N2C)c1
- EC50 [1]: > 53 µM (inactive)
- IC50 [2]: > 47.1 µM (inactive)

SMILES: COc1ccc(-c2cc(C(=O)N3CC4(C)CC3CC(C)(C)C4)no2)cc1OC (stereo not given)
- AC50 [7]: 1.75 µM (active)

SMILES: CCCCCCc1nnc(N)s1
- EC50 [3]: > 120 µM (not active)
- EC50 [4]: > 120 µM (not active)
- EC50 [5]: > 120 µM (not active)

SMILES: Cc1cc(O)c(/C=N/Nc2ccc(F)cc2)c(=O)o1
- EC50 [16]: 9.97 µM (active)

SMILES: Cc1nc2cnc(Oc3ccccc3)nc2n(C2CC2)c1=O
- AC50 [8]: 25.1 µM (inconclusive)
- AC50 [17]: 12.6 µM (inconclusive)

SMILES: CCOc1ccc(N/N=C(/C#N)C(N)=O)cc1
- AC50 [8]: 20 µM (inconclusive)
- AC50 [17]: 15.8 µM (inconclusive)

SMILES: O=c1cnc2cnc(Oc3ccccc3)nc2n1Cc1cccs1
- AC50 [10]: 39.8 µM (inconclusive)
- AC50 [8]: 15.8 µM (inconclusive)

SMILES: CCCn1cc(S(=O)(=O)c2ccccc2)c(=O)c2cc(OCC)ccc21
- EC50 [1]: > 53 µM (inactive)
- IC50 [2]: > 47.1 µM (inactive)

SMILES: COc1ccc(-c2oc(=O)c3cc(OC)c(OC)cc3c2C#CC2(O)CCCCC2)cc1
- IC50 [6]: > 20 µM (inactive)

SMILES: Cc1c(NC2=C(Cl)C(=O)N(c3ccccc3Cl)C2=O)c(=O)n(-c2ccccc2)n1C
- EC50 [1]: > 53 µM (inactive)
- IC50 [2]: > 47.1 µM (inactive)

SMILES: Cc1ccc(SCc2ccc(C(=O)NCc3ccncc3)cc2)cc1
- AC50 [8]: 7.08 µM (inconclusive)

Reference: ChEMBL document CHEMBL1201862, “PubChem BioAssay data set” (2004)
